Test results as given in US6329189A, “Enzyme producing tartaric acid ether compound and process for producing tartaric acid ether compounds using this enzyme” (Kikkoman Corporation, priority 1998, dated 2001).
Counter-ions that a name gives are not always drawn.

Experiments:
[1] = tested on: enzyme producing tartaric acid ether compound; test: Influence of metallic ions on the action of the present enzyme; format: biochemical, Aspergillus oryzae; details: for Relative activity (%): activity with no addition = 100%; for Influence on the activity of the present enzyme (in words): presence of the ion or EDTA
Procedure: "Relative activity (%)" in Table 2 is the value relative to the activity (expressed as 100) observed when no metallic ion was added.
The activity observed with no addition of metallic ions was expressed as 100%.

[2] = Solubility in solvents of the enzyme reaction products; format: physicochemical; details: water, methanol, DMSO
[3] = target: T1, histidine decarboxylase (HDC) (Homo sapiens, UniProt P19113); details: from JP-A-9-110857 and JP-A-10-59956; cited from earlier work
T1 sequence (P19113 1-662): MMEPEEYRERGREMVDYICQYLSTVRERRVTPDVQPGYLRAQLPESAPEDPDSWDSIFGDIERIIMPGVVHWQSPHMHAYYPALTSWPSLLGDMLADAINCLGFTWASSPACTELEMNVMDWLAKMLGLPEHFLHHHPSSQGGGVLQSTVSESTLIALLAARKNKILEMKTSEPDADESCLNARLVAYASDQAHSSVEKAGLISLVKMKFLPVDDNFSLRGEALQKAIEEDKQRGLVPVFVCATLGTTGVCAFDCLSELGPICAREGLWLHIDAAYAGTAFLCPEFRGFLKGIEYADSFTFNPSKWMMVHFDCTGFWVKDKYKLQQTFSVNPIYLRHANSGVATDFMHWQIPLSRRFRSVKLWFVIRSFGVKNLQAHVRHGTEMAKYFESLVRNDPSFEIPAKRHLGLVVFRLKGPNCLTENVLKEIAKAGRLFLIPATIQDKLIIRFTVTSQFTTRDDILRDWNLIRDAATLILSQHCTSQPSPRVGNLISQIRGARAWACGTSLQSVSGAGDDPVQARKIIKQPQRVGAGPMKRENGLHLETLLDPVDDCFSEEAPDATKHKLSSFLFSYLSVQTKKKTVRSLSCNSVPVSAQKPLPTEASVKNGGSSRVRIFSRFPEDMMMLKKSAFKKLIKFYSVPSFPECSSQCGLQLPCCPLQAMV

[4] = tested on: enzyme producing tartaric acid ether compound; test: Km value from Lineweaver-Burk's plot; format: biochemical, Aspergillus oryzae; details: compound used as substrate
[5] = tested on: enzyme producing tartaric acid ether compound; test: Substrate specificity of the present enzyme in the presence of (±)-trans-epoxysuccinic acid; format: biochemical, Aspergillus oryzae; details: for Action of the enzyme to the phenolic hydroxyl groups of the substrate (in words): in the presence of (±)-trans-epoxysuccinic acid; for Relative activity (%): substrate in the presence of (±)-trans-epoxysuccinic acid, decrement of genistein as substrate expressed as 100
Procedure: The activities of the present enzyme to the various substrate compounds having a phenolic hydroxyl group(s) shown in Table 1 in the presence of (±)-trans-epoxysuccinic acid were measured and shown as relative activities (%) with reference to the activity to genistein which was expressed as 100. The measurement of activity was conducted under the same conditions as used for the determination of titer described later.
Enzyme titer was determined by the following method. The amount of the enzyme that produces 1 μmol of 2-hydroxy-3-[[5-hydroxy-3-(4-hydroxyphenyl)-4-oxo-4H-1-benzopyran-7-yl]oxy]-butanedioic acid in one minute in the reaction of the following formula (6) is expressed as 1 U. [drawing 1]
Substrate solution I: 60 mM (±)-trans-epoxysuccinic acid (Tokyo Kasei Kogyo Co., Ltd.) was dissolved in 100 ml of a 50 mM sodium acetate-acetic acid buffer (pH 6.0), and the solution was adjusted to pH 6.0 with sodium hydroxide.
Substrate solution II: Prepared by dissolving 0.3 mmol of genistein (Funakoshi Co., Ltd.) in 100 ml of dimethyl sulfoxide.
50 mmol of sodium acetate and 40 mmol of manganese sulfate were dissolved in distilled water, and the solution was adjusted to pH 6.0 with acetic acid and made one litre.
(1) 0.175 ml of the buffer, 0.1 ml of the substrate solution I and 0.01 ml of an enzyme solution were pipetted into a microtube, and the mixed solution was preincubated at 37° C. for 5 minutes.
(2) The above solution was mixed with 0.025 ml of the substrate solution II and reacted at 37° C. for 15 minutes, after which 0.01 ml of concentrated hydrochloric acid was added to stop the reaction. Used as control was a solution prepared in the same way as described above except that 0.01 ml of the buffer was added in place of 0.01 ml of the enzyme solution.
2-hydroxy-3-[[5-hydroxy-3-(4-hydroxyphenyl)-4-oxo-4H-1-benzopyran-7-yl]oxy]-butanedioic acid produced from the reaction of the formula (6) was determined by HPLC under the following conditions: […]
Column: Wakosil-II5C18HG (4.6 mm×30 mm+4.6 mm×250 mm, mfd. by Wako Pure Chemical Industries, Ltd.).
Eluent: distilled water containing 0.05% of trifluoroacetic acid and 28.8% of acetonitrile.
Detecting wavelengh: 260 nm.

SMILES	Action of the enzyme to the phenolic hydroxyl groups of the substrate (in words) [5]	Relative activity (%) [5] [%]	other results
[Zn+2] [Zn^2+]			Relative activity (%) ([1]; 20 mM metallic ion): 416%; Influence on the activity of the present enzyme (in words) [1]: enhanced
[Co+2] [Co^2+]			Relative activity (%) ([1]; 20 mM metallic ion): 236%; Influence on the activity of the present enzyme (in words) [1]: enhanced
O=C1CC(c2ccc(O)cc2)Oc2cc(OC(C(=O)O)C(O)C(=O)O)cc(O)c21 (centres unmarked) [Example 4 enzyme reaction product I]			Solubility in solvents [2]: soluble in water, methanol and DMSO
O=C(O)C(O)C(Oc1ccc2c(=O)c(-c3ccc(O)cc3)coc2c1)C(=O)O (single isomer, unassigned) [2-hydroxy-3-[[3-(4-hydroxyphenyl)-4-oxo-4H-1-benzopyran-7-yl]oxy]-butanedioic acid]			Inhibitory action against histidine decarboxylase (HDC) [3]: prominent inhibitory action
O=C1CC(c2ccc(OC(C(=O)O)C(O)C(=O)O)cc2)Oc2cc(OC(C(=O)O)C(O)C(=O)O)cc(O)c21 (centres unmarked) [Example 4 enzyme reaction product II]			Solubility in solvents [2]: soluble in water, methanol and DMSO
O=C(O)C(O)C(Oc1cc(O)c2c(=O)cc(-c3ccc(O)cc3)oc2c1)C(=O)O (centres unmarked) [Example 6 enzyme reaction product]			Solubility in solvents [2]: soluble in water, methanol and DMSO
O=C(O)C(O)C(Oc1cc(O)c2c(c1)O[C@H](c1ccc(O)c(O)c1)[C@@H](O)C2=O)C(=O)O (single isomer, unassigned) [Example 5 enzyme reaction product]			Solubility in solvents [2]: soluble in water, methanol and DMSO
O=C(O)[C@H]1O[C@@H]1C(=O)O (relative stereo) [(±)-trans-epoxysuccinic acid]			Km [4]: 2580 µM
O=C1/C(=C/c2ccc(O)c(O)c2)Oc2cc(O)ccc21 [sulfuretin]	acts in a favorable way	316	
O=c1c(O)c(-c2ccc(O)cc2)oc2cc(O)cc(O)c12 [kaempferol]	acts in a favorable way	278	
O=c1cc(CO)occ1O [kojic acid]	acts faintly	4	
O=c1c(-c2ccc(O)cc2)coc2cc(O)cc(O)c12 [genistein]	acts in a favorable way	100	Km [4]: 1040 µM
O=C1c2c(O)cc(O)cc2O[C@H](c2ccc(O)c(O)c2)[C@H]1O [(+)-taxifolin]	acts in a favorable way	106	
[Mg+2] [Mg^2+]			Relative activity (%) ([1]; 20 mM metallic ion): 220%; Influence on the activity of the present enzyme (in words) [1]: enhanced
O=C(O)C(O)C(Oc1cc(O)c2c(=O)c(O)c(-c3ccc(O)cc3)oc2c1)C(=O)O (centres unmarked) [Example 3 enzyme reaction product I]			Solubility in solvents [2]: soluble in water, methanol and DMSO
[Fe+2] [Fe^2+]			Relative activity (%) ([1]; 20 mM metallic ion): 125%; Relative activity (%) ([1]; 20 mM metallic ion, listed as Fe^3+): 33%; Influence on the activity of the present enzyme (in words) [1]: enhanced
O=C(O)C(O)C(Oc1ccc(-c2oc3cc(OC(C(=O)O)C(O)C(=O)O)cc(O)c3c(=O)c2O)cc1)C(=O)O (centres unmarked) [Example 3 enzyme reaction product II]			Solubility in solvents [2]: soluble in water, methanol and DMSO
O=C(/C=C/c1ccc(O)c(O)c1)c1c(O)cc(O)cc1O [2',4',6',3,4-pentahydroxychalcone]	acts in a favorable way	115	
O=C1COc2cc(O)ccc21 [6-hydroxy-2H-benzofuran-3-one]	acts in a favorable way	135	

SMILES	Action of the enzyme to the phenolic hydroxyl groups of the substrate (in words) [5]	Relative activity (%) [5] [%]	other results
O=c1oc2cc(O)ccc2c2oc3cc(O)ccc3c12 [courmestrol]	acts in a favorable way	58	
O=c1c(O)c(-c2ccc(O)c(O)c2)oc2cc(O)cc(O)c12 [quercetin]		31	
O=c1c(-c2ccc(O)cc2)coc2cc(O)ccc12 [daidzein]	acts in a favorable way	52	
[Mn+2] [Mn^2+]			Relative activity (%) ([1]; 20 mM metallic ion): 268%; Influence on the activity of the present enzyme (in words) [1]: enhanced
O=C1C(=Cc2ccc(O)c(O)c2)Oc2cc(OC(C(=O)O)C(O)C(=O)O)ccc21 (centres unmarked) [Example 2 enzyme reaction product]			Solubility in solvents [2]: soluble in water, methanol and DMSO
O=C(O)C(O)C(Oc1cc(O)c2c(=O)c(-c3ccc(O)cc3)coc2c1)C(=O)O (single isomer, unassigned) [2-hydroxy-3-[[5-hydroxy-3-(4-hydroxyphenyl)-4-oxo-4H-1-benzopyran-7-yl]oxy]-butanedioic acid]			Inhibitory action against histidine decarboxylase (HDC) [3]: prominent inhibitory action
COc1cc(C(=O)O)ccc1O [vanillic acid]	acts faintly	4	
O=C1C[C@@H](c2ccc(O)cc2)Oc2cc(O)cc(O)c21 [naringenin]	acts in a favorable way	194	
O=c1c(-c2ccc(O)cc2)coc2cc(O)c(O)cc12 [4',6,7-trihydroxyisoflavone]	acts in a favorable way	182	
Cc1cc(=O)oc2cc(O)cc(O)c12 [5,7-dihydroxy-4-methylcoumarin]	acts in a favorable way	107	
O=C(O)CN(CCN(CC(=O)O)CC(=O)O)CC(=O)O [EDTA, ethylenediamine-N,N,N'N'-tetraacetic acid disodium salt]			Relative activity (%) ([1]; 5 mM EDTA): 12%; Influence on the activity of the present enzyme (in words) [1]: greatly inhibited
[Ni+2] [Ni^2+]			Relative activity (%) ([1]; 20 mM metallic ion): 198%; Influence on the activity of the present enzyme (in words) [1]: enhanced
O=c1cc(-c2ccccc2)oc2cc(O)c(O)c(O)c12 [baicalein]	acts in a favorable way	321	
O=C(O)C(O)C(Oc1cc(O)c2c(=O)c(-c3ccc(O)cc3)coc2c1O)C(=O)O (single isomer, unassigned) [2-[[5,8-dihydroxy-3-(4-hydroxyphenyl)-4-oxo-4H-1-benzopyran-7-yl]oxy]-3-hydroxy-butanedioic acid]			Inhibitory action against histidine decarboxylase (HDC) [3]: prominent inhibitory action
COc1ccc(-c2coc3cc(O)cc(O)c3c2=O)cc1 [biochanin A]	acts in a favorable way	86	
[Cu+2] [Cu^2+]			Relative activity (%) ([1]; 20 mM metallic ion): 0%; Influence on the activity of the present enzyme (in words) [1]: greatly inhibited
O=c1cc(-c2ccc(O)cc2)oc2cc(O)cc(O)c12 [apigenin]	acts in a favorable way	92	
Oc1cc(O)c2c(c1)OC(c1ccc(O)c(O)c1)C(O)C2 (centres unmarked) [catechin]		16	
[Ca+2] [Ca^2+]			Relative activity (%) ([1]; 20 mM metallic ion): 140%; Influence on the activity of the present enzyme (in words) [1]: enhanced
